Measurements: US20090075951A1, “Methods and Reagents for the Treatment of Inflammatory Disorders” (CombinatoRx, Inc., priority 2003, published 2009)
Where two headings read alike, the source gives them in different places.

How the values were obtained:
[1] = test system: TNFα secretion from LPS stimulated white blood cells from human buffy coat; assay: TNFα secretion assay, LPS stimulation
Description: (§1) Various concentrations of each test compound were added at the time of stimulation. […] After the plate was washed with 0.1% Tween 20/PBS, an HRP-luminescent substrate was added to each well and light intensity measured using a LJL Analyst plate luminometer.

cytokine secretion = assay: Suppression of cytokine secretion in vitro by individual tricyclic compounds
Description: Individual tricyclic compounds were tested for their ability to suppress cytokine secretion in vitro.

[2] = test system: TNFα secretion from PMA/ionomycin stimulated white blood cells from human buffy coat; assay: TNFα secretion assay, PMA/ionomycin stimulation
Description: as §1

[3] = Homo sapiens, read-out: TNFα LPS percent inhibition, 0.03 μM
[4] = Homo sapiens, read-out: TNFα LPS percent inhibition, 0.06 μM
[5] = Homo sapiens, read-out: TNFα LPS percent inhibition, […]
[6] = read-out: IL-1β LPS percent inhibition
[7] = read-out: IL-2 PI percent inhibition
[8] = read-out: TNFα PI percent inhibition, 0.03 μM
[9] = read-out: TNFα PI percent inhibition, 0.06 μM
[10] = read-out: TNFα PI percent inhibition, […]
[11] = Homo sapiens, read-out: TNFα LPS percent inhibition, 0.50 μM
[12] = Homo sapiens, read-out: TNFα LPS percent inhibition, 1.00 μM
[13] = Homo sapiens, read-out: TNFα LPS percent inhibition, 2.00 μM
[14] = Homo sapiens, read-out: TNFα LPS percent inhibition, 4.00 μM
[15] = Homo sapiens, read-out: TNFα LPS percent inhibition, 8.00 μM
[16] = read-out: TNFα PI percent inhibition, 0.50 μM
[17] = read-out: TNFα PI percent inhibition, 1.00 μM
[18] = read-out: TNFα PI percent inhibition, 2.00 μM
[19] = read-out: TNFα PI percent inhibition, 4.00 μM
[20] = read-out: TNFα PI percent inhibition, 8.00 μM
[21] = Homo sapiens, read-out: TNFα LPS percent inhibition
[22] = read-out: TNFα PI percent inhibition

In the case of CN(C)CCC=C1c2ccccc2COc2ccccc21 [Doxepin, doxepin], the inhibition at 0.03 µM [1, 3] is reported as 0%, the inhibition at 0.06 µM [1, 4] is reported as 5% and the inhibition at 63 µM [1, 5] is reported as 13%. It also gave an inhibition at 0.03 µM (cytokine secretion; [6]) of 0%, an inhibition at 0.06 µM (cytokine secretion; [6]) of 1% and an inhibition at 63 µM (cytokine secretion; [6]) of 26%. The inhibition at 0.03 µM (cytokine secretion; [7]) was 0%, the inhibition at 0.06 µM (cytokine secretion; [7]) was 0% and the inhibition at 63 µM (cytokine secretion; [7]) was 61%. The inhibition at 0.03 µM [2, 8] was 0%, the inhibition at 0.06 µM [2, 9] was 0% and the inhibition at 63 µM [2, 10] was 78%.
For CN(C)CCC=C1c2ccccc2CCc2ccccc21 [Amitriptyline, amitriptyline], the inhibition at 0.03 µM [1, 3] was 0%, the inhibition at 0.06 µM [1, 4] was 0% and the inhibition at 0.5 µM [1, 11] was 0%. It also gave an inhibition at 1 µM [1, 12] of 0%, an inhibition at 2 µM [1, 13] of 0% and an inhibition at 4 µM [1, 14] of 0%. The inhibition at 8 µM [1, 15] was 0%, the inhibition at 16 µM [1, 5] was 0% and the inhibition at 32 µM [1, 5] was 18%. The inhibition at 64 µM [1, 5] was 45%, the inhibition at 0.03 µM (cytokine secretion; [6]) was 0% and the inhibition at 0.06 µM (cytokine secretion; [6]) was 0%. For the same compound, the inhibition at 0.5 µM (cytokine secretion; [6]) was 0%, the inhibition at 1 µM (cytokine secretion; [6]) was 0% and the inhibition at 2 µM (cytokine secretion; [6]) was 0%. The inhibition at 4 µM (cytokine secretion; [6]) was 11%, the inhibition at 8 µM (cytokine secretion; [6]) was 7% and the inhibition at 16 µM (cytokine secretion; [6]) was 0%. It also gave an inhibition at 32 µM (cytokine secretion; [6]) of 0%, an inhibition at 64 µM (cytokine secretion; [6]) of 0% and an inhibition at 0.03 µM (cytokine secretion; [7]) of 0%. The inhibition at 0.06 µM (cytokine secretion; [7]) was 2%, the inhibition at 0.5 µM (cytokine secretion; [7]) was 0% and the inhibition at 1 µM (cytokine secretion; [7]) was 0%. The inhibition at 2 µM (cytokine secretion; [7]) was 0%, the inhibition at 4 µM (cytokine secretion; [7]) was 4% and the inhibition at 8 µM (cytokine secretion; [7]) was 7%. It also gave an inhibition at 16 µM (cytokine secretion; [7]) of 33%, an inhibition at 32 µM (cytokine secretion; [7]) of 62% and an inhibition at 64 µM (cytokine secretion; [7]) of 82%. It also gave an inhibition at 0.03 µM [2, 8] of 0%, an inhibition at 0.06 µM [2, 9] of 0% and an inhibition at 0.5 µM [2, 16] of 0%. The inhibition at 1 µM [2, 17] was 0%, the inhibition at 2 µM [2, 18] was 0% and the inhibition at 4 µM [2, 19] was 5%. The inhibition at 8 µM [2, 20] was 21%, the inhibition at 16 µM [2, 10] was 35% and the inhibition at 32 µM [2, 10] was 66%. It also gave an inhibition at 64 µM [2, 10] of 81%.
CNCCCN1c2ccccc2CCc2ccccc21 [Desipramine, desipramine] was tested, and the inhibition at 0.03 µM [1, 3] was 0%, the inhibition at 0.06 µM [1, 4] was 0% and the inhibition at 0.5 µM [1, 11] was 0%. It also gave an inhibition at 1 µM [1, 12] of 0%, an inhibition at 2 µM [1, 13] of 0% and an inhibition at 4 µM [1, 14] of 0%. The inhibition at 8 µM [1, 15] was 0%, the inhibition at 16 µM [1, 5] was 3% and the inhibition at 32 µM [1, 5] was 34%. The inhibition at 64 µM [1, 5] was 64%, the “percent inhibition of TNFα secretion” value ([1]; LPS, Prednisolone 1 μM, Desipramine μM r5-r13: 0,0.5,1,2,4,8,16,32,64) was 60.8% and the inhibition at 0.03 µM (cytokine secretion; [6]) was 0%. It also gave an inhibition at 0.06 µM (cytokine secretion; [6]) of 0%, an inhibition at 0.5 µM (cytokine secretion; [6]) of 11% and an inhibition at 1 µM (cytokine secretion; [6]) of 13%. The inhibition at 2 µM (cytokine secretion; [6]) was 10%, the inhibition at 4 µM (cytokine secretion; [6]) was 10% and the inhibition at 8 µM (cytokine secretion; [6]) was 10%. It also gave an inhibition at 16 µM (cytokine secretion; [6]) of 3%, an inhibition at 32 µM (cytokine secretion; [6]) of 9% and an inhibition at 64 µM (cytokine secretion; [6]) of 36%. For the same compound, the inhibition at 0.03 µM (cytokine secretion; [7]) was 0%, the inhibition at 0.06 µM (cytokine secretion; [7]) was 0% and the inhibition at 0.5 µM (cytokine secretion; [7]) was 0%. It also gave an inhibition at 1 µM (cytokine secretion; [7]) of 0%, an inhibition at 2 µM (cytokine secretion; [7]) of 0% and an inhibition at 4 µM (cytokine secretion; [7]) of 0%. It also gave an inhibition at 8 µM (cytokine secretion; [7]) of 8%, an inhibition at 16 µM (cytokine secretion; [7]) of 38% and an inhibition at 32 µM (cytokine secretion; [7]) of 68%. For the same compound, the inhibition at 64 µM (cytokine secretion; [7]) was 76%, the inhibition at 0.03 µM [2, 8] was 0% and the inhibition at 0.06 µM [2, 9] was 0%. The inhibition at 0.5 µM [2, 16] was 0%, the inhibition at 1 µM [2, 17] was 0% and the inhibition at 2 µM [2, 18] was 1%. It also gave an inhibition at 4 µM [2, 19] of 17%, an inhibition at 8 µM [2, 20] of 26% and an inhibition at 16 µM [2, 10] of 60%. For the same compound, the inhibition at 32 µM [2, 10] was 79% and the inhibition at 64 µM [2, 10] was 89%.
Compound CN(C)CCCN1c2ccccc2CCc2ccccc21 [Imipramine, imipramine] has an inhibition at 0.03 µM [1, 3] of 0%, an inhibition at 0.06 µM [1, 4] of 10% and an inhibition at 63 µM [1, 5] of 3%. The inhibition at 0.03 µM (cytokine secretion; [6]) was 0%, the inhibition at 0.06 µM (cytokine secretion; [6]) was 0% and the inhibition at 63 µM (cytokine secretion; [6]) was 13%. It also gave an inhibition at 0.03 µM (cytokine secretion; [7]) of 0%, an inhibition at 0.06 µM (cytokine secretion; [7]) of 19% and an inhibition at 63 µM (cytokine secretion; [7]) of 85%. It also gave an inhibition at 0.03 µM [2, 8] of 0%, an inhibition at 0.06 µM [2, 9] of 0% and an inhibition at 63 µM [2, 10] of 92%.
For CC(CN(C)C)CN1c2ccccc2CCc2ccccc21 (centres unmarked) [Trimipramine, trimipramine], the inhibition at 0.01 µM ([1]; Homo sapiens, read-out: TNFα LPS percent inhibition, 0.01 μM) was 0%, the inhibition at 0.03 µM [1, 3] was 1% and the inhibition at 0.06 µM [1, 4] was 3%. The inhibition at 29 µM [1, 5] was 11%, the inhibition at 0.01 µM (cytokine secretion; [6]) was 0% and the inhibition at 0.03 µM (cytokine secretion; [6]) was 0%. It also gave an inhibition at 0.06 µM (cytokine secretion; [6]) of 0%, an inhibition at 29 µM (cytokine secretion; [6]) of 2% and an inhibition at 0.01 µM (cytokine secretion; [7]) of 0%. It also gave an inhibition at 0.03 µM (cytokine secretion; [7]) of 5%, an inhibition at 0.06 µM (cytokine secretion; [7]) of 6% and an inhibition at 29 µM (cytokine secretion; [7]) of 36%. The inhibition at 0.01 µM ([2]; read-out: TNFα PI percent inhibition, 0.01 μM) was 0%, the inhibition at 0.03 µM [2, 8] was 0% and the inhibition at 0.06 µM [2, 9] was 0%. The inhibition at 29 µM [2, 10] was 77%.
Cc1cc2c(s1)Nc1ccccc1N=C2N1CCN(C)CC1 [Olanzapine] was tested, and the inhibition at 0.03 µM [1, 21] was 0%, the inhibition at 0.06 µM [1, 21] was 0% and the inhibition at 0.5 µM [1, 21] was 0%. It also gave an inhibition at 1 µM [1, 21] of 0%, an inhibition at 2 µM [1, 21] of 0% and an inhibition at 4 µM [1, 21] of 0%. For the same compound, the inhibition at 8 µM [1, 21] was 0%, the inhibition at 16 µM [1, 21] was 0% and the inhibition at 32 µM [1, 21] was 0%. For the same compound, the inhibition at 64 µM [1, 21] was 10%, the inhibition at 0.03 µM (cytokine secretion; [6]) was 0% and the inhibition at 0.06 µM (cytokine secretion; [6]) was 0%. It also gave an inhibition at 0.5 µM (cytokine secretion; [6]) of 2%, an inhibition at 1 µM (cytokine secretion; [6]) of 5% and an inhibition at 2 µM (cytokine secretion; [6]) of 3%. It also gave an inhibition at 4 µM (cytokine secretion; [6]) of 3%, an inhibition at 8 µM (cytokine secretion; [6]) of 7% and an inhibition at 16 µM (cytokine secretion; [6]) of 21%. For the same compound, the inhibition at 32 µM (cytokine secretion; [6]) was 41%, the inhibition at 64 µM (cytokine secretion; [6]) was 40% and the inhibition at 0.03 µM (cytokine secretion; [7]) was 0%. For the same compound, the inhibition at 0.06 µM (cytokine secretion; [7]) was 0%, the inhibition at 0.5 µM (cytokine secretion; [7]) was 0% and the inhibition at 1 µM (cytokine secretion; [7]) was 0%. The inhibition at 2 µM (cytokine secretion; [7]) was 0%, the inhibition at 4 µM (cytokine secretion; [7]) was 0% and the inhibition at 8 µM (cytokine secretion; [7]) was 0%. The inhibition at 16 µM (cytokine secretion; [7]) was 0%, the inhibition at 32 µM (cytokine secretion; [7]) was 0% and the inhibition at 64 µM (cytokine secretion; [7]) was 0%. It also gave an inhibition at 0.03 µM [2, 22] of 0%, an inhibition at 0.06 µM [2, 22] of 0% and an inhibition at 0.5 µM [2, 22] of 0%. It also gave an inhibition at 1 µM [2, 22] of 0%, an inhibition at 2 µM [2, 22] of 0% and an inhibition at 4 µM [2, 22] of 0%. It also gave an inhibition at 8 µM [2, 22] of 0%, an inhibition at 16 µM [2, 22] of 13% and an inhibition at 32 µM [2, 22] of 27%. The inhibition at 64 µM [2, 22] was 54%.
